Measurements taken from patent US20210346383A1, “COMPOUNDS, COMPOSITIONS AND METHODS FOR TREATING OR PREVENTING HER-DRIVEN CANCERS” (Rain Therapeutics Inc., priority 2018, published 2021).
Where two headings read alike, the source gives them in different places. One block for each compound: values may come before it.

Key:
[1] = system: H-1781 (ERBB2 p.G776Ins V_G/C); experiment: cells; assay type: cell-based
[2] = biological target: Ba/F3 cells expressing HER2 G776delinsVC (Homo sapiens, UniProt P04626, DELINS776-776VC, cells depend on it); experiment: Ba/F3 growth inhibitory assay, HER2 exon 20 mutations; assay type: cell-based, murine; settings: read-out: IC50, growth inhibition
Protocol: (§1) The murine pro-B cell line Ba/F3 (RCB0805) was obtained from RIKEN Bio Resource Center (Tsukuba, Japan). […] Several Ba/F3 lines which were established in the previous study were also used in this study.
(§2) Briefly, 2000 cells were seeded in each well of 96-well plates. Twenty-four hours later, DMSO or a TKI at indicated drug concentration were added, and the cells were cultured for additional 72 hours. A colorimetric assay was used to estimate the growth inhibition of each drug using the Cell Counting Kit-8 reagent (Dojindo Laboratories, Kumamoto, Japan). Each experiment was performed in triplicate.
(§3) HER2 A775_G776insYVMA, G776delinsVC, P780_Y781insGSP, YVMA+C805S (YVMACS) and VC+C805S (VCCS) mutations were introduced into Ba/F3 cells using retroviral vector.

[3] = system: H-2170 (ERBB2 amplification); experiment: cells; assay type: cell-based; settings: Homo sapiens
[4] = system: CALU-3 (ERBB2 amplification); experiment: cells; assay type: cell-based; settings: Homo sapiens
[5] = biological target: Ba/F3 cells expressing HER2 VC + C805S (VCCS) (Homo sapiens, UniProt P04626, DELINS776-776VC/C805S, cells depend on it); experiment: Ba/F3 growth inhibitory assay, HER2 exon 20 mutations; assay type: cell-based, murine; settings: read-out: IC50, growth inhibition
Protocol: as §1, §2, §3

[6] = biological target: Ba/F3 cells expressing HER2 P780_Y781insGSP (Homo sapiens, UniProt P04626, DUP778-780, cells depend on it); experiment: as above; assay type: cell-based, murine; settings: read-out: IC50, growth inhibition
Protocol: as §1, §2, §3

[7] = biological target: Ba/F3 cells expressing HER2 YVMA + C805S (YVMACS) (Homo sapiens, UniProt P04626, DUP772-775/C805S, cells depend on it); experiment: as above; assay type: cell-based, murine; settings: read-out: IC50, growth inhibition
Protocol: as §1, §2, §3

[8] = biological target: Ba/F3 cells expressing HER2 A775_G776insYVMA (Homo sapiens, UniProt P04626, DUP772-775, cells depend on it); experiment: as above; assay type: cell-based, murine; settings: read-out: IC50, growth inhibition
Protocol: as §1, §2, §3

[9] = system: CUTO-17 (EGFR N771_H773dupNPH); experiment: cells; settings: CUTO17, read-out: Cellular Anti-Proliferative Assay IC50
[10] = system: CUTO-18 (EGFR S768_D770dupSVD); experiment: cells; settings: read-out: Cellular Anti-Proliferative Assay IC50
[11] = system: PC9 brain metastasis model; settings: cited from earlier work
[12] = system: CUTO-14 (EGFR A767_V769dupASV); experiment: cells; settings: CUTO14, read-out: Cellular Anti-Proliferative Assay IC50
[13] = biological target: Ba/F3 cells expressing EGFR H773insNPH (Homo sapiens, UniProt P00533, DUP771-773, cells depend on it); experiment: Ba/F3 cell growth inhibition assay (Cell Counting Kit-8); assay type: cell-based, murine; settings: 72 hours, read-out: IC50, growth inhibition
[14] = biological target: Ba/F3 cells expressing EGFR L858R + T790M + C797S (Homo sapiens, UniProt P00533, T790M/C797S/L858R, cells depend on it); experiment: as above; assay type: cell-based, murine; settings: 72 hours, read-out: IC50, growth inhibition
[15] = biological target: Ba/F3 cells expressing EGFR H773insH (Homo sapiens, UniProt P00533, DUP773-773, cells depend on it); experiment: as above; assay type: cell-based, murine; settings: 72 hours, read-out: IC50, growth inhibition
[16] = biological target: Ba/F3 cells expressing EGFR A763insFQEA (Homo sapiens, UniProt P00533, INS763FQEA, cells depend on it); experiment: as above; assay type: cell-based, murine; settings: 72 hours, read-out: IC50, growth inhibition
[17] = biological target: Ba/F3 cells expressing EGFR Del 19 (Homo sapiens, UniProt P00533, DEL746-750, cells depend on it); experiment: as above; assay type: cell-based, murine; settings: Ba/F3 EGFR Del 19; 72 hours; read-out: IC50, growth inhibition
[18] = biological target: Ba/F3 cells expressing EGFR V769insASV (Homo sapiens, UniProt P00533, DUP767-769, cells depend on it); experiment: as above; assay type: cell-based, murine; settings: 72 hours, read-out: IC50, growth inhibition
[19] = biological target: Ba/F3 cells expressing EGFR L858R (Homo sapiens, UniProt P00533, L858R, cells depend on it); experiment: as above; assay type: cell-based, murine; settings: 72 hours, read-out: IC50, growth inhibition
[20] = biological target: Ba/F3 cells expressing EGFR L858R + C797S (Homo sapiens, UniProt P00533, C797S/L858R, cells depend on it); experiment: as above; assay type: cell-based, murine; settings: 72 hours, read-out: IC50, growth inhibition
[21] = biological target: Ba/F3 cells expressing EGFR D770insSVD (Homo sapiens, UniProt P00533, DUP768-770, cells depend on it); experiment: as above; assay type: cell-based, murine; settings: 72 hours, read-out: IC50, growth inhibition
[22] = biological target: Ba/F3 cells expressing EGFR Del 19 + T790M + C797S (Homo sapiens, UniProt P00533, DEL746-750/T790M/C797S, cells depend on it); experiment: as above; assay type: cell-based, murine; settings: Ba/F3 EGFR Del 19 + T790M + C797S; 72 hours; read-out: IC50, growth inhibition
[23] = biological target: Ba/F3 cells expressing EGFR Del 19 + C797S (Homo sapiens, UniProt P00533, DEL746-750/C797S, cells depend on it); experiment: as above; assay type: cell-based, murine; settings: Ba/F3 EGFR Del 19 + C797S; 72 hours; read-out: IC50, growth inhibition
[24] = system: H1975-luc human NSCLC cells, intracranial; settings: cited from earlier work
[25] = 10 mg/kg and 25 mg/kg once daily, 49-day treatment

Chain of Ba/F3 cells expressing HER2 A775_G776insYVMA (P04626 with tags, fused parts or gaps DUP772-775): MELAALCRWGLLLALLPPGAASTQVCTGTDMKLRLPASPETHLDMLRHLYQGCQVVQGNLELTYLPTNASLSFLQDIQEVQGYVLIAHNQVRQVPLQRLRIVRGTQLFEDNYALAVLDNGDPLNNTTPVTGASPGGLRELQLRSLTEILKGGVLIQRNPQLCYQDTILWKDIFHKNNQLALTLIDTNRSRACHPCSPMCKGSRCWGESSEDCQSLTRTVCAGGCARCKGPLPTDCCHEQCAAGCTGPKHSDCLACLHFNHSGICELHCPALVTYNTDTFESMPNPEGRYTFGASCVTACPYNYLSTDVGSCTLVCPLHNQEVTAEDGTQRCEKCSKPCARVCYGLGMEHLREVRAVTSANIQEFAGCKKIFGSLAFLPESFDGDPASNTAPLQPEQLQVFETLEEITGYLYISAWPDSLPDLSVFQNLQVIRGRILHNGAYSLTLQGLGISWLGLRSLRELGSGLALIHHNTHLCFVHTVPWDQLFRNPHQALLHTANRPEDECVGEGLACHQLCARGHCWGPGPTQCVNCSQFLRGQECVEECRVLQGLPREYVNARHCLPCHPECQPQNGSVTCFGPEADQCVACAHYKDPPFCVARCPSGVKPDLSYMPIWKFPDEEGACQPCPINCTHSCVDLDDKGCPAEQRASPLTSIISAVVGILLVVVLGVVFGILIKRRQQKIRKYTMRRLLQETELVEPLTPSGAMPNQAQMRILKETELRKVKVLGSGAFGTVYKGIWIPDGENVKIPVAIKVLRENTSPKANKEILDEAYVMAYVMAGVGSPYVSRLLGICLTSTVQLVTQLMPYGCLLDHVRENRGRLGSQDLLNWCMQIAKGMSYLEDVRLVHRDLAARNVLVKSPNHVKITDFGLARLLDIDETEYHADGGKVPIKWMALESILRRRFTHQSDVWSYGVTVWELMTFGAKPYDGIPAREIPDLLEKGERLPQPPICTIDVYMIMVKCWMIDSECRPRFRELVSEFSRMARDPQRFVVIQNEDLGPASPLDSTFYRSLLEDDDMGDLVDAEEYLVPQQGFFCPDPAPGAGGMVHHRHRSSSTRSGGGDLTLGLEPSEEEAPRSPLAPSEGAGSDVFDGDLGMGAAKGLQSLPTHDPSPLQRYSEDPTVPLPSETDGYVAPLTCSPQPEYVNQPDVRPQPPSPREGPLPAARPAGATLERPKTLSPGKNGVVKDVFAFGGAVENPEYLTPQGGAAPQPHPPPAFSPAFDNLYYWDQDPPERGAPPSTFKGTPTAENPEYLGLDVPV
Chain of Ba/F3 cells expressing HER2 YVMA + C805S (YVMACS) (P04626 with tags, fused parts or gaps DUP772-775/C805S): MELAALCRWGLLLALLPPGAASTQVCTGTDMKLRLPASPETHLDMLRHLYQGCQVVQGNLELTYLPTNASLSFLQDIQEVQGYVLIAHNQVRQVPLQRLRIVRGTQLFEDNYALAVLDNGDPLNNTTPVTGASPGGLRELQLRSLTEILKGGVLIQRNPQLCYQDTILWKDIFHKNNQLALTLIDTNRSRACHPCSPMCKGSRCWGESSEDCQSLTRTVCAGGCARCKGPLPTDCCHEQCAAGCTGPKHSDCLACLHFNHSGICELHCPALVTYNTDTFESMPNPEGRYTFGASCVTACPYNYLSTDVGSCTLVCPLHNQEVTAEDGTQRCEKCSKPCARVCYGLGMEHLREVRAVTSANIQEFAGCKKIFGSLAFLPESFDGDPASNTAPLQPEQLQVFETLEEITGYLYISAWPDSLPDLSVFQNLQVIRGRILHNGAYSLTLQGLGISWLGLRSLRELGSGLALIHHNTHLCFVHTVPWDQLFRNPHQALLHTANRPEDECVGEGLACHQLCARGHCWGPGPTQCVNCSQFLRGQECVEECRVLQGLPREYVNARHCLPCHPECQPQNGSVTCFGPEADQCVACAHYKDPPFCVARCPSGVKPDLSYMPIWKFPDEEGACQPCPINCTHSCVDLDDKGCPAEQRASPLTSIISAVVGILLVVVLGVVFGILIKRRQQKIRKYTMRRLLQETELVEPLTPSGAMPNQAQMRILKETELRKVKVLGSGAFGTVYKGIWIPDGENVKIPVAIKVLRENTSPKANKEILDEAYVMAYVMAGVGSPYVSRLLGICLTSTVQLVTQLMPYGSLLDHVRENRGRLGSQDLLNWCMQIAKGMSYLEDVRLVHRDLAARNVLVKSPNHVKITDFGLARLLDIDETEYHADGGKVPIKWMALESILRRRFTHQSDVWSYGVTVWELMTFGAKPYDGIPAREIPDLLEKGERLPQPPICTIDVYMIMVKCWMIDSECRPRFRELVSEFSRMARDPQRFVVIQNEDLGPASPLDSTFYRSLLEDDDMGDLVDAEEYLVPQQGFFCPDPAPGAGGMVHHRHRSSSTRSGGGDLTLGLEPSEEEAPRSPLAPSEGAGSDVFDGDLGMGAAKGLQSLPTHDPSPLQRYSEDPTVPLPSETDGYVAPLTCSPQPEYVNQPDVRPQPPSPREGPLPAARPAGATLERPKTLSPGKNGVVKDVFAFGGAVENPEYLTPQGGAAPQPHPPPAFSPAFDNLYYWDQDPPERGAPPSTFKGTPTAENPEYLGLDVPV
Chain of Ba/F3 cells expressing HER2 VC + C805S (VCCS) (P04626 with tags, fused parts or gaps DELINS776-776VC/C805S): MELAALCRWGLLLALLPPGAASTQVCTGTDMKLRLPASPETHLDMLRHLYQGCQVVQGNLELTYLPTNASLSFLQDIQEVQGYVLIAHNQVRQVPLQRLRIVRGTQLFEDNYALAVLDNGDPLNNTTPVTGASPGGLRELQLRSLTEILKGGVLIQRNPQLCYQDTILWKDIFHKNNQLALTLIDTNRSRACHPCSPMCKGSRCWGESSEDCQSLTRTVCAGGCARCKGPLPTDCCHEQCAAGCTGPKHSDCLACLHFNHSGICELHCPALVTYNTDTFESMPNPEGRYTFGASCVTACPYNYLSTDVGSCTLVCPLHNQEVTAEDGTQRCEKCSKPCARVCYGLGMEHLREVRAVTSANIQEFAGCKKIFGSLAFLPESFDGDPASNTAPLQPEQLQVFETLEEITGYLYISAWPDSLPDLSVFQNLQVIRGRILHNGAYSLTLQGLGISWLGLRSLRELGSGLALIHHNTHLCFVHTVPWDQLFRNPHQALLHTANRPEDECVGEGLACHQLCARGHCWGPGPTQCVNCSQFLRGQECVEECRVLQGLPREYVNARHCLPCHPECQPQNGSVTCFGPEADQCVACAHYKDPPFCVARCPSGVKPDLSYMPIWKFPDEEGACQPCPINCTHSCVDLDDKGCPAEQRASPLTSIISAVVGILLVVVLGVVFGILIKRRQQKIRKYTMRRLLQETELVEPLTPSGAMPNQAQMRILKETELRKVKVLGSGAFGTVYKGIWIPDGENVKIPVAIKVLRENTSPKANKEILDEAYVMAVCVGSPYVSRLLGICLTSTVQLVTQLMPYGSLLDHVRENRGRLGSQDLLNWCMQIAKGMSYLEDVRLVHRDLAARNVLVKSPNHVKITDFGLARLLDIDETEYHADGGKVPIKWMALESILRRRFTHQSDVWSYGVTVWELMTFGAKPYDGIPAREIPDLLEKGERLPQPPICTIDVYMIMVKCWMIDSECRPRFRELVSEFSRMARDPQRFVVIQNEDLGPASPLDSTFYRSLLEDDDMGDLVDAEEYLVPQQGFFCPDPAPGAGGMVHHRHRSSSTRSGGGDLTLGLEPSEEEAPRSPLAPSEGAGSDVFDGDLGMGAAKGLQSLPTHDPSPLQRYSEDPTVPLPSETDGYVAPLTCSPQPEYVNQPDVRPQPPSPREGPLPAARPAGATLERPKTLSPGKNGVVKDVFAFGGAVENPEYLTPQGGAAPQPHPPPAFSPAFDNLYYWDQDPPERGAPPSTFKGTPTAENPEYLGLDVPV
Chain of Ba/F3 cells expressing HER2 G776delinsVC (P04626 with tags, fused parts or gaps DELINS776-776VC): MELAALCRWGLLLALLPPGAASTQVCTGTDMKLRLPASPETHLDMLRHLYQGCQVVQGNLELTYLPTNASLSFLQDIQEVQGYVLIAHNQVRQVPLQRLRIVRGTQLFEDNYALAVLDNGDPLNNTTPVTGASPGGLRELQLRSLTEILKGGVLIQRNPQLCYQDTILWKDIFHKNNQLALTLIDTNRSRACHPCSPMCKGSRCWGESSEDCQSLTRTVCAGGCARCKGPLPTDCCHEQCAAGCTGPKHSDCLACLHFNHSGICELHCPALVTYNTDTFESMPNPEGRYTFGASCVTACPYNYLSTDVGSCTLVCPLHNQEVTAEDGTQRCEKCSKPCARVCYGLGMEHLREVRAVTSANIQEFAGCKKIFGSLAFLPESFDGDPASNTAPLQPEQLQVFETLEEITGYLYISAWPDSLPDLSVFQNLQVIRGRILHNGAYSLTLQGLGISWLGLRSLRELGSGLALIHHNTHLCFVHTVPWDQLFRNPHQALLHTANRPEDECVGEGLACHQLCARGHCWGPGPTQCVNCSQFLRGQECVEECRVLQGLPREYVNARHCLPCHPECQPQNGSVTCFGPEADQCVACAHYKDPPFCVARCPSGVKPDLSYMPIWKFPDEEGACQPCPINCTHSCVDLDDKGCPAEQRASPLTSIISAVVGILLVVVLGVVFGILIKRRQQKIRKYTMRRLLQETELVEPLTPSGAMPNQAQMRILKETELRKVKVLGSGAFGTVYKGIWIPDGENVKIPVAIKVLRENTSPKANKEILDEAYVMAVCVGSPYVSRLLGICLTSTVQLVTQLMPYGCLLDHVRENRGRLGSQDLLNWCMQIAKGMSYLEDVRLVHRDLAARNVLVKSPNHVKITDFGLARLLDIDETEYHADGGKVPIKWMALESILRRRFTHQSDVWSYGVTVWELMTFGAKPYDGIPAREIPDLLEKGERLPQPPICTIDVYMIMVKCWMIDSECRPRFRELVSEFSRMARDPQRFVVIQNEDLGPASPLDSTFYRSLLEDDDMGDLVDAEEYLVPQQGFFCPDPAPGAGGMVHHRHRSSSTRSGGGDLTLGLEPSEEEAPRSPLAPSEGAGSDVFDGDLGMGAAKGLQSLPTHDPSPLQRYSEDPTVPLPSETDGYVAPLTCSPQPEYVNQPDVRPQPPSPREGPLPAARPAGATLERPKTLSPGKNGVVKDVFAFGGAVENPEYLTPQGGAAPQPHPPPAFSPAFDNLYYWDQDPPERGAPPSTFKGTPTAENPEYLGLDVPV

- GI50 [2]: 2.05 nM
- IC50 ([4]; Calu-3, read-out: Cellular Anti-Proliferative Assay IC50): 31 nM
- GI50 [5]: 41.3 nM
- GI50 [6]: 6.5 nM
- GI50 [7]: 545 nM
- GI50 [8]: 8.08 nM
SMILES: CN(C)CC=CC(=O)Nc1cc2c(Nc3ccc(F)c(Cl)c3)ncnc2cc1O[C@H]1CCOC1 [Afatinib, N-[4-[(3-Chloro-4-fluorophenyl)amino]-7-[[(3S)-tetrahydro-3-furanyl]oxy]-6-quinazolinyl]-4(dimethylamino)-2-butenamide]
- IC50 ([1]; NCI-H1781, read-out: Cellular Anti-Proliferative Assay IC50): 66 nM
- IC50 ([3]; NCI-H2170, read-out: Cellular Anti-Proliferative Assay IC50): 11 nM

SMILES: C=CC(=O)Nc1cc(Nc2nccc(-c3cn(C)c4ccccc34)n2)c(OC)cc1N(C)CCN(C)C [Osimertinib, N-(2-{2-dimethylaminoethyl-methylamino}-4-methoxy-5-{[4-(1-methylindol-3-yl)pyrimidin-2-yl]amino}phenyl)prop-2-enamide]
- IC50 [9]: 426 ± 3 nM
- IC50 [10]: 647 ± 3 nM
- IC50 ([1]; NCI-H1781, H-1781, ERBB2 p.G776Ins V_G/C, normoxic conditions, read-out: Cellular Anti-Proliferative Assay IC50): 406 nM
- GI50 [2]: 7.23 nM
- IC50 ([3]; NCI-H2170, H-2170, ERBB2 amplification, normoxic conditions, read-out: Cellular Anti-Proliferative Assay IC50): 113 nM
- IC50 ([4]; CALU-3, ERBB2 amplification, normoxic conditions, read-out: Cellular Anti-Proliferative Assay IC50): 188 nM
- GI50 [5]: > 1000 nM
- GI50 [6]: 88.5 nM
- tumor regression ([11]; 5 mg/kg QD, first three weeks): caused tumor regression, which was more transient
- tumor regression ([11]; 25 mg/kg QD): induced sustained tumor regression until study end at day 60
- GI50 [7]: > 1000 nM
- GI50 [8]: 68.3 nM
- IC50 [12]: 303 nM

- GI50 [13]: 2.2 nM
- GI50 [14]: > 1000 nM
- GI50 [15]: 22.8 nM
- GI50 [2]: 0.02 nM
- GI50 [16]: 0.7 nM
- GI50 [17]: < 0.457 nM
- GI50 [18]: 28 nM
- GI50 [19]: < 0.457 nM
- GI50 [20]: 7.1 nM
- GI50 [5]: 27.9 nM
- GI50 [21]: 27.9 nM
- GI50 [22]: > 1000 nM
- GI50 [23]: 1.6 nM
- GI50 [6]: 1.03 nM
- GI50 [7]: 316 nM
- GI50 [8]: 0.64 nM
SMILES: C=CC(=O)N1CCC(Oc2cc3c(Nc4ccc(Cl)c(Cl)c4F)ncnc3cc2OC)CC1 [Poziotinib]

SMILES: C=CC(=O)Nc1cc(Nc2nccc(-n3cc(CN(C)C)c(-c4ccccc4)n3)n2)c(OC)cc1N1CCOCC1 [YH25448]
- body weight [24, 25]: no obvious loss of the body weight
- intracranial tumor growth inhibition vs osimertinib [24, 25]: more effectively inhibited intracranial tumor growth than osimertinib
- intracranial tumor regression ([24]; H1975 xenograft model): showed intracranial tumor regression
